Measured values taken from the supplement of paper PMC13380429.

Experiments:
[1] = tested on: A549-ACE2 infected with SARS-CoV-2; test: cell count relative to DMSO; higher = less toxic; conditions: 24 h
Caco-2 [2] = test: cell viability relative to DMSO; higher = less toxic; conditions: 72 h
Calu-3 [3] = test: as above; conditions: 72 h
HepG2 [4] = test: as above; conditions: 72 h
U2OS [5] = test: as above; conditions: 72 h
Vero E6 [6] = test: as above; conditions: 72 h
[7] = tested on: A549-ACE2 infected with SARS-CoV-2; test: SARS-CoV-2 infection rate relative to DMSO; higher = more infection; conditions: 24 h
A549-ACE2 [8] = test: drug-induced phospholipidosis relative to tamoxifen; higher = more phospholipidosis
[9] = tested on: A549-ACE2 infected with SARS-CoV-2; test: morphology score (similarity to uninfected cells); higher = more like uninfected cells; conditions: 24 h
Caco-2 [10] = test: relative viability EC50 (midpoint between 100% and the lowest measured viability); higher = less toxic; conditions: 72 h
Calu-3 [11] = test: as above; conditions: 72 h
HepG2 [12] = test: as above; conditions: 72 h
U2OS [13] = test: as above; conditions: 72 h
Vero E6 [14] = test: as above; conditions: 72 h
Caco-2 [15] = test: drug sensitivity score (DSS) for viability; higher = more toxic; extreme values may be limits of the assay; conditions: 72 h
Calu-3 [16] = test: as above; conditions: 72 h
HepG2 [17] = test: as above; conditions: 72 h
U2OS [18] = test: as above; conditions: 72 h
Vero E6 [19] = test: as above; conditions: 72 h
A549-ACE2 [20] = test: phospholipidosis EC50; higher = less potent phospholipidosis inducer

COC[C@H](NC(=O)c1cnc(C)s1)C(=O)N[C@@H](COC)C(=O)N[C@@H](Cc1ccccc1)C(=O)[C@@]1(C)CO1 [oprozomib]
Conditions | SARS-CoV-2 infection rate, [7] [%] | cell count, [1] [%] | cell viability, Caco-2 [2] [%] | cell viability, Calu-3 [3] [%] | cell viability, HepG2 [4] [%] | cell viability, U2OS [5] [%] | cell viability, Vero E6 [6] [%] | morphology score, [9]
1 nM | – | – | 103 | 92.4 | 114 | 103 | 106 | –
10 nM | – | – | 94.8 | 102 | 99.3 | 93.8 | 103 | –
0.1 µM | 76 | 87 | – | – | – | – | – | 0.41
100 nM | – | – | 18.9 | 25.4 | 27.5 | 53.9 | 72.4 | –
0.3 µM | 95 | 83 | – | – | – | – | – | 0.31
1 µM | 64 | 74 | – | – | – | – | – | 0.24
1000 nM | – | – | 8.5 | 4.2 | 4.6 | 0.2 | 16.3 | –
3 µM | 33 | 59 | – | – | – | – | – | 0.24
10000 nM | – | – | 5.5 | 4.5 | -0.1 | -0.3 | 4.2 | –

A549-ACE2 [8], 24 h
Conditions | drug-induced phospholipidosis [%]
0.3 µM | -19.8
0.833333 µM | -14.9
3.33333 µM | -36.6

Conditions | drug sensitivity score | relative viability EC50 [µM]
Caco-2 [10] | – | 0.0409
Caco-2 [15] | 27.4 | –
Calu-3 [11] | – | 0.0607
Calu-3 [16] | 25.9 | –
HepG2 [12] | – | 0.0661
HepG2 [17] | 26.4 | –
U2OS [13] | – | 0.109
U2OS [18] | 23.3 | –
Vero E6 [14] | – | 0.209
Vero E6 [19] | 18.7 | –

CSc1ccc2c(c1)[C@H](N1CCN(C)CC1)Cc1ccccc1S2 (racemic) [metitepine]
Conditions | SARS-CoV-2 infection rate [%] | cell count [%] | cell viability [%] | morphology score | phospholipidosis EC50 [µM]
A549-ACE2 [20], 24 h | – | – | – | – | 3.04
A549-ACE2 [20], 48 h | – | – | – | – | 5.86
A549-ACE2 [20], 72 h | – | – | – | – | 9.23
Caco-2 [2], 1 nM | – | – | 108 | – | –
Caco-2 [2], 10 nM | – | – | 92.9 | – | –
Caco-2 [2], 100 nM | – | – | 99.2 | – | –
Caco-2 [2], 1000 nM | – | – | 102 | – | –
Caco-2 [2], 10000 nM | – | – | 48.5 | – | –
Calu-3 [3], 1 nM | – | – | 98.4 | – | –
Calu-3 [3], 10 nM | – | – | 101 | – | –
Calu-3 [3], 100 nM | – | – | 98.2 | – | –
Calu-3 [3], 1000 nM | – | – | 104 | – | –
Calu-3 [3], 10000 nM | – | – | 73.2 | – | –
HepG2 [4], 1 nM | – | – | 101 | – | –
HepG2 [4], 10 nM | – | – | 107 | – | –
HepG2 [4], 100 nM | – | – | 103 | – | –
HepG2 [4], 1000 nM | – | – | 99 | – | –
HepG2 [4], 10000 nM | – | – | 64.3 | – | –
U2OS [5], 1 nM | – | – | 98.9 | – | –
U2OS [5], 10 nM | – | – | 97.6 | – | –
U2OS [5], 100 nM | – | – | 97.1 | – | –
U2OS [5], 1000 nM | – | – | 97.2 | – | –
U2OS [5], 10000 nM | – | – | 93.2 | – | –
Vero E6 [6], 1 nM | – | – | 106 | – | –
Vero E6 [6], 10 nM | – | – | 104 | – | –
Vero E6 [6], 100 nM | – | – | 102 | – | –
Vero E6 [6], 1000 nM | – | – | 101 | – | –
Vero E6 [6], 10000 nM | – | – | 71.6 | – | –
[1], 0.1 µM | – | 101 | – | – | –
[1], 0.3 µM | – | 104 | – | – | –
[1], 1 µM | – | 108 | – | – | –
[1], 3 µM | – | 94 | – | – | –
[7], 0.1 µM | 106 | – | – | – | –
[7], 0.3 µM | 90 | – | – | – | –
[7], 1 µM | 88 | – | – | – | –
[7], 3 µM | 47 | – | – | – | –
[9], 0.1 µM | – | – | – | 0.14 | –
[9], 0.3 µM | – | – | – | 0.39 | –
[9], 1 µM | – | – | – | 0.32 | –
[9], 3 µM | – | – | – | 0.72 | –

drug-induced phospholipidosis [%], A549-ACE2 [8]
Conditions | 0.3 µM | 0.833333 µM | 3.33333 µM | 6.66667 µM | 10 µM | 30 µM
24 h | 7.38 | 6.64 | 62.5 | 91.7 | 105 | 86.3
48 h | 6.3 | 11.3 | 47.9 | 92.1 | 115 | –
72 h | 8.87 | 6.23 | 37.4 | 86.6 | 125 | –

Conditions | drug sensitivity score | relative viability EC50 [µM]
Caco-2 [10] | – | 3.35
Caco-2 [15] | 2.6 | –
Calu-3 [16] | 0.8 | –
HepG2 [17] | 1.8 | –
U2OS [13] | – | > 10
U2OS [18] | 0 | –
Vero E6 [19] | 1.1 | –

O=C1C=C2C=C[C@@H]3C[C@@]2(O1)[C@H]1CCCCN31 [securinine]
Conditions | SARS-CoV-2 infection rate, [7] [%] | cell count, [1] [%] | cell viability, Caco-2 [2] [%] | cell viability, Calu-3 [3] [%] | cell viability, HepG2 [4] [%] | cell viability, U2OS [5] [%] | cell viability, Vero E6 [6] [%] | morphology score, [9]
1 nM | – | – | 76.4 | 96.5 | 94.9 | 103 | 93.1 | –
10 nM | – | – | 91.5 | 88.5 | 103 | 94.9 | 101 | –
100 nM | – | – | 104 | 101 | 104 | 103 | 92.5 | –
0.3 µM | 108 | 92 | – | – | – | – | – | -0.16
1000 nM | – | – | 90.1 | 92.1 | 108 | 95.1 | 97.5 | –
3 µM | 107 | 97 | – | – | – | – | – | -0.26
10 µM | 109 | 103 | – | – | – | – | – | -0.24
10000 nM | – | – | 99.5 | 98.5 | 99.8 | 94.9 | 101 | –
30 µM | 87 | 84 | – | – | – | – | – | -0.11

drug-induced phospholipidosis [%], A549-ACE2 [8]
Conditions | 0.3 µM | 0.833333 µM | 3.33333 µM | 6.66667 µM | 10 µM | 30 µM
24 h | 4.04 | -1.29 | -2.26 | -0.14 | 0.15 | 3.11
48 h | 4.43 | 0.73 | 0.81 | 3.64 | 1.66 | 8.62
72 h | 5.5 | -2.31 | 1.12 | 1.57 | 2.55 | 11.9

Conditions | drug sensitivity score | relative viability EC50 [µM]
Caco-2 [10] | – | > 10
Caco-2 [15] | 0 | –
Calu-3 [11] | – | > 10
Calu-3 [16] | 0 | –
HepG2 [12] | – | > 10
HepG2 [17] | 0 | –
U2OS [13] | – | > 10
U2OS [18] | 0 | –
Vero E6 [14] | – | > 10
Vero E6 [19] | 0 | –

Cc1[nH]c(/C=C2\C(=O)Nc3ccc(F)cc32)c(C)c1C(=O)NCCN1CCCC1 [toceranib]
Conditions | SARS-CoV-2 infection rate [%] | cell count [%] | cell viability [%] | morphology score | phospholipidosis EC50 [µM]
A549-ACE2 [20], 24 h | – | – | – | – | 16.5
Caco-2 [2], 1 nM | – | – | 95.6 | – | –
Caco-2 [2], 10 nM | – | – | 94.8 | – | –
Caco-2 [2], 100 nM | – | – | 98.8 | – | –
Caco-2 [2], 1000 nM | – | – | 105 | – | –
Caco-2 [2], 10000 nM | – | – | 92.9 | – | –
HepG2 [4], 1 nM | – | – | 99.4 | – | –
HepG2 [4], 10 nM | – | – | 107 | – | –
HepG2 [4], 100 nM | – | – | 97.3 | – | –
HepG2 [4], 1000 nM | – | – | 106 | – | –
HepG2 [4], 10000 nM | – | – | 53.9 | – | –
U2OS [5], 1 nM | – | – | 95.5 | – | –
U2OS [5], 10 nM | – | – | 97.9 | – | –
U2OS [5], 100 nM | – | – | 103 | – | –
U2OS [5], 1000 nM | – | – | 96.3 | – | –
U2OS [5], 10000 nM | – | – | 85.2 | – | –
Vero E6 [6], 1 nM | – | – | 89.9 | – | –
Vero E6 [6], 10 nM | – | – | 99.1 | – | –
Vero E6 [6], 100 nM | – | – | 101 | – | –
Vero E6 [6], 1000 nM | – | – | 106 | – | –
Vero E6 [6], 10000 nM | – | – | 73.2 | – | –
[1], 0.1 µM | – | 107 | – | – | –
[1], 0.3 µM | – | 103 | – | – | –
[1], 1 µM | – | 102 | – | – | –
[1], 3 µM | – | 111 | – | – | –
[7], 0.1 µM | 88 | – | – | – | –
[7], 0.3 µM | 107 | – | – | – | –
[7], 1 µM | 100 | – | – | – | –
[7], 3 µM | 80 | – | – | – | –
[9], 0.1 µM | – | – | – | 0.22 | –
[9], 0.3 µM | – | – | – | -0.03 | –
[9], 1 µM | – | – | – | 0.33 | –
[9], 3 µM | – | – | – | 0.51 | –

drug-induced phospholipidosis [%], A549-ACE2 [8]
Conditions | 0.3 µM | 0.833333 µM | 3.33333 µM | 6.66667 µM | 10 µM | 30 µM
24 h | 4.88 | -0.73 | 12.9 | 38.6 | 54.2 | 119
48 h | 5.94 | -0.83 | 1.11 | 20.1 | 38.4 | –
72 h | 4.25 | -2.8 | -0.0471 | 16 | 34 | –

Conditions | drug sensitivity score | relative viability EC50 [µM]
Caco-2 [10] | – | > 10
Caco-2 [15] | 0 | –
HepG2 [17] | 2 | –
U2OS [13] | – | > 10
U2OS [18] | 0.5 | –
Vero E6 [19] | 0.8 | –
